Results published in US9637469B2, “Pyridine derivative” (Teijin Pharma Limited, priority 2012, dated 2017).

How the values were obtained:
Cebus apella = assay: Test for drug efficacy in Cebus apella (uric acid excretion rate); format: in vivo; conditions: 3 mg/kg to 30 mg/kg in 0.5% methylcellulose into stomach via the nasal cavity, up to 24 hours
Experimental: A test compound (3 mg/kg to 30 mg/kg) prepared by suspending in a 0.5% methylcellulose solution was administered to Cebus apella into stomach via the nasal cavity using a disposable catheter and a syringe barrel. Blood samples were taken before administration and 30 minutes, 1 hour, 2 hours, 4 hours, 8 hours, 12 hours, and 24 hours after administration; and urine samples were collected for the time intervals of immediately to 4 hours after administration, from 4 hours to 8 hours after administration, from 8 hours to 16 hours after administration, and from 16 hours to 24 hours after administration. Concentrations of uric acid and creatinine in the blood and urine samples collected were measured by an automatic analyzer (JEOL Ltd.). Uric acid and creatine were measured using L-type Wako UA.F (Wako Pure Chemicals Industries, Ltd.) and L-type Creatine F (Wako Pure Chemicals Industries, Ltd.) respectively. Uric acid clearance was calculated from the uric acid concentrations in blood and urine and, similarly, creatinine clearance was calculated from the creatinine concentrations.

human URAT1 = biological target: T1, human URAT1 (Homo sapiens, UniProt Q96S37); assay: Test for inhibition of uric acid transport using human URAT1-expressing cells;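 also: three stars up to 0.2 µM two stars 0.2-2 µM one star 2-20 µM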; format: cell-based; conditions: HEK 293 cells expressing human URAT1; 14C-labeled uric acid 25 μM; uptake 37° C. for 5 min
T1 construct: Full-length cDNA of human URAT1 (hURAT1)
T1 sequence (Q96S37 1-553): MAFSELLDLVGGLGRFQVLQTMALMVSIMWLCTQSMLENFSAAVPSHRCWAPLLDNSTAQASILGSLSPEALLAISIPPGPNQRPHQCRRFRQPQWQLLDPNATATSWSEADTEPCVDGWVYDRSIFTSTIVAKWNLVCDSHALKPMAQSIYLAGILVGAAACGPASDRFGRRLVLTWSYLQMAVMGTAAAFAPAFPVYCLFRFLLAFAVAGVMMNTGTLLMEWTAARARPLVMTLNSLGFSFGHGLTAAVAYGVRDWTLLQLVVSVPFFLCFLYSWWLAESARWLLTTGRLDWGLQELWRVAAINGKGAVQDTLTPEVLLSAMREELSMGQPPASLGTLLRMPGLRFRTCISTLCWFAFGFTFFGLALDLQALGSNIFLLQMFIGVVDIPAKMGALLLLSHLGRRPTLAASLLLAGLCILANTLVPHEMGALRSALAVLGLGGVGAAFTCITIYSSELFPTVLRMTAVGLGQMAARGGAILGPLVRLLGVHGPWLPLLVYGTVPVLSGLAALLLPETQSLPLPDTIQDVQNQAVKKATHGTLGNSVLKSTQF
How it was run: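 HEK293 cells stably transfected with full-length hURAT1, preincubated 10 min at 37 °C in HBSS with NaCl replaced by Na gluconate. Uptake of 25 μM ¹⁴C-uric acid with compound ran 5 min at 37 °C, then scintillation counting. IC50 derived from % of DMSO-control URAT1-specific uptake.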

For `Cc1nc(-c2cncc(C(F)(F)F)c2)n(Cc2cc(Cl)ccc2Cl)c1C(=O)O` [Compound A139, 1-(2,5-dichlorobenzyl)-4-methyl-2-(5-(trifluoromethyl)pyridin-3-yl)-1H-imidazole-5-carboxylic acid], the “uricosuric effect (uric acid excretion rate)” value (shortened to “uricosuric effect”) (Cebus apella) was “excellent uricosuric effect was confirmed” and the “Inhibitory Activity (IC50 of uric acid transport inhibition)” value (“Inhibitory Activity” for short) (human URAT1) was “* * *”.

In the case of `O=C(O)c1c(C2CC2)nc(-c2cncc(Cl)c2)n1Cc1cc(Cl)ccc1Cl` [Compound A147, 2-(5-chloropyridin-3-yl)-4-cyclopropyl-1-(2,5-dichlorobenzyl)-1H-imidazole-5-carboxylic acid], the “uricosuric effect” value (Cebus apella) is reported as “excellent uricosuric effect was confirmed” and the “Inhibitory Activity” value (human URAT1) is reported as “* * *”.

In the case of `Cc1cncc(-c2nc(C)c(C(=O)O)n2Cc2cc(Cl)ccc2Cl)c1` [Compound A156, 1-(2,5-dichlorobenzyl)-4-methyl-2-(5-methylpyridin-3-yl)-1H-imidazole-5-carboxylic acid], the “uricosuric effect” value (Cebus apella) is reported as “excellent uricosuric effect was confirmed” and the “Inhibitory Activity” value (human URAT1) is reported as “* * *”.

With `O=C(O)c1cnc(-c2cncc(Cl)c2)n1Cc1cc(Cl)ccc1Cl` [Compound A169, 2-(5-chloropyridin-3-yl)-1-(2,5-dichlorobenzyl)-1H-imidazole-5-carboxylic acid] the “uricosuric effect” value (Cebus apella) was “excellent uricosuric effect was confirmed” and the “Inhibitory Activity” value (human URAT1) was “* * *”.

`Cc1nc(-c2cncc(Cl)c2)n(Cc2cccc3ccsc23)c1C(=O)O` [Compound A233, 1-(benzo[b]thiophen-7-ylmethyl)-2-(5-chloropyridin-3-yl)-4-methyl-1H-imidazole-5-carboxylic acid] was tested, and the “uricosuric effect” value (Cebus apella) was “excellent uricosuric effect was confirmed” and the “Inhibitory Activity” value (human URAT1) was “* * *”.

For `O=C(O)c1ccc(-c2cccnc2)n1Cc1cccc2ccccc12` [Compound B1, 1-(naphthalen-1-ylmethyl)-2-(pyridin-3-yl)-1H-pyrrole-5-carboxylic acid], the “uricosuric effect” value (Cebus apella) was “excellent uricosuric effect was confirmed” and the “Inhibitory Activity” value (human URAT1) was “* * *”.

`O=C(O)c1ccc(-c2cccnc2)n1Cc1cc(Cl)ccc1Cl` [Compound B11, 1-(2,5-dichlorobenzyl)-2-(pyridin-3-yl)-1H-pyrrole-5-carboxylic acid] was tested, and the “uricosuric effect” value (Cebus apella) was “excellent uricosuric effect was confirmed” and the “Inhibitory Activity” value (human URAT1) was “* * *”.
